Here are results for eight molecules from US11065231B2, “Compounds and methods for the targeted degradation of interleukin-1 receptor- associated kinase 4 polypeptides” (Arvinas Operations, Inc., priority 2017, dated 2021).

A value given as a limit tells only on which side of the number the result lay.

Test [1] addresses T1, IRAK4 (Homo sapiens (Human), UniProt Q9NWZ3). Nature of the test: Biochemical Z'-Lyte FRET assay for IRAK4 kinase inhibition. Conditions: 2 nM enzyme, 1 mM ATP, 2 μM substrate. As for the experimental part:
Biochemical Assay for IRAK4 Kinase Inhibition.
A Z′-Lyte assay based on a fluorescence resonance energy transfer (FRET) readout was developed for measuring IRAK4-dependent phosphorylation of a FRET-peptide substrate as described by Thermo Fisher Scientific (Grand Island, N.Y.). At a starting concentration of 1.5 mM, the identified compounds were serially diluted with 100% dimethyl sulfoxide (DMSO) in 3-fold increments, into Greiner bio-one 96-well plates (cat. #: 650201, Greiner bio-one, Monroe, N.C.). Compounds were then transferred to intermediate Greiner bio-one 96-well plates and diluted 10-fold with Kinase assay buffer (25 mM HEPES, pH 7.5, 10 mM MgCl2, 10 mM MnCl2, 1 mM EGTA, and 0.01% Brij-35, 2 mM DTT). Three μL of the serially diluted compounds were then transferred in duplicate to low-volume 384-well black proxiplates (cat. #: 6008269; Perkin Elmer, Akron, Ohio), to give duplicate twelve-point concentration curves. Six μl of a 2.5× solution of IRAK4 enzyme (cat #: 40064, BPS Bioscience, San Diego, Calif.) in kinase buffer was added to each well, followed by a 10 minutes pre-incubation step. Reactions were initiated by adding 6 μl of a 2.5× substrate mix of ATP and Z′-Lyte Ser/Thr 7 peptide (cat. #: PV3180, Thermo Fisher Scientific, Grand Island, N.Y.) and proceeded at room temperature for 1 hour. The final concentration of key reagents in the 15 uL kinase reactions were 2 μM substrate, 2 nM enzyme, and 1 mM ATP, with dose responses starting at 30 μM compound. At the end of the kinase reactions, 5 μl of developing solution (as instructed in for cat. #: PV3180, Thermo Fisher Scientific, Grand Island, N.Y.) was added to each well and incubated at room temperature for 1 hour. All wells were read on an Envision 2105 Multilabel fluorescence plate reader (Perkin Elmer, Waltham, Mass.) at 400 nm excitation and 460 nm/530 nm emission. Plus and minus 100% inhibition controls were used to calculate percent inhibition and IC50 curves were generated using Graphpad Prism (La Jolla, Calif.).

The target of test [2] is T1, IRAK4. Nature of the test: Western blot assay for assessing degradation of IRAK4 in MCF7 cells. It counts as cell-based. Conditions: Table 5, IRAK4 degradation, 24 hour incubation; for DC50: read-out: IRAK4 DC50. As for the experimental part: Western Blot Assay for Assessing Degradation of IRAK4.
MCF7 cells, purchased from ATCC (Manassas, Va.), were used at a passage range of 2-19. Cells were seeded at 50% confluency in 96-well plates at 180 μl/well in cell media (Dulbecco's Modified Eagle medium/nutrient F-12 Ham-10% Fetal Bovine Serum) and incubated overnight. The next morning, compounds were serially diluted and added (20 μl into 180 μl media) at a final DMSO concentration of 0.1%. Cells were rinsed with cell media and replaced with compounds in media, followed by incubation overnight. After a 24 hour incubation with compound, cell were harvested (90-100% confluent at harvest). Cells were then washed once with 100 μl of Dulbecco's hosphate-buffered saline and then lysed with 40 μl of lysis buffer (1×RIPA+HALT protease inhibitor+HALT phosphatase inhibitor) on ice for 10 minutes. Lysates were then cleaned by filtration in 1.2 µm filter plates followed by western blotting. For each sample, 30 μl of lysate were added to 10 μl of 4×LDS sample buffer, then denatured at 95° C. for 5 minutes in the thermal cycler and placed on ice. Fifteen μL of each sample were then loaded on 4-15% Tris/Glycine gels and run for 25 minutes at 250 (constant) volts in 1× Tris/Glycine buffer. Protein was transferred from gels to nitrocellulose using a BioRad Turbo dry-transfer unit with the Turbo/midi default program. All blots were rinsed with ddH2O and blocked for 1 hour at room temperature in 5% bovine serum albumin (BSA) in tris-buffered saline-Tween 20 (TBS-T) (0.1%) on rocker. Blots were exposed to primary antibody in 5% BSA in TBS-T (0.1%) overnight at 4° C. on rocker. Primary antibodies, diluted 1:1000 in […], were as follows: anti-IRAK4 (cat. #: ab119942, Abcam, Cambridge, Mass.), anti-IRAK1 (cat. #: CST 4504S, Cell Signaling Technology, Danvers, Mass.), and anti-Beta-actin (Cat. #: ab8227, Abcam, Cambridge, Mass.). Blots were then washed with TBS-T (0.1%) three times for 5 minutes on a rocker at room temperature. Secondary antibody (1:18,000 anti-rabbit-HRP and/or anti-mouse-HRP in 5% BSA in TBST (0.1%) was then added, and blots incubated at room temperature rocker for 1 hour. Blots were washed 3 times in TBS-T (0.1%) for 5 minutes at room temperature on the rocker. Signal was developed with Femto Max substrate for 5 minutes and blots read on a ChemiDoc. Percent degradation was assessed by comparing IRAK4 signal in compound vs. DMSO treated lysates.
For orientation: In western blotting, separated proteins are transferred to a membrane and probed.

As usually defined, the IC50 is the concentration at which inhibition is half-maximal. A lower IC50 goes with greater potency. As a reminder, the DC50 is the midpoint of the concentration-degradation curve.

T1 sequence (Q9NWZ3 whole entry): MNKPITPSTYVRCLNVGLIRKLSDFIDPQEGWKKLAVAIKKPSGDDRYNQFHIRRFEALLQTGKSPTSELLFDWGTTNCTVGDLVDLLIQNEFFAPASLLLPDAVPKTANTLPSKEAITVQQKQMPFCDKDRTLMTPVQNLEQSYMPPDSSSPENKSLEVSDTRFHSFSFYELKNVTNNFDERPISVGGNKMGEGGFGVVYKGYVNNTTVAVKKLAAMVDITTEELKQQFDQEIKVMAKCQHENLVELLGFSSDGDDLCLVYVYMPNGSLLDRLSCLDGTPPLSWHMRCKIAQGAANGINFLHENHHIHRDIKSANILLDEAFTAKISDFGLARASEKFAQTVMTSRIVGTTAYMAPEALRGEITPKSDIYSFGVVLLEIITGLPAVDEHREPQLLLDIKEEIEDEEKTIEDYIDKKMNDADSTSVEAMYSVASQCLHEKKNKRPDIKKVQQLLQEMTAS

At IRAK4 [1], `CN(CCOCCOc1ccc2c(c1)C(=O)N(C1CCC(=O)NC1=O)C2=O)c1cccc(-n2c(NC(=O)c3cccc(C(F)(F)F)c3)nc3cc(F)ccc32)c1` (centres unmarked) [compound 51, N-(1-(3-((2-(2-((2-(2,6-dioxopiperidin-3-yl)-1,3-dioxoisoindolin-5-yl)oxy)ethoxy)ethyl)(methyl)amino)phenyl)-5-fluoro-1H-benzo[d]imidazol-2-yl)-3-(trifluoromethyl)benzamide] displayed an IC50 not below 1 µM. In addition, the DC50 at IRAK4 [2] is not below 1 µM.
The molecule `COc1cccc(-n2c(NC(=O)c3cccc(C(F)(F)F)c3)nc3cc(CN4CCN(CCOc5ccc6c(c5)C(=O)N(C5CCC(=O)NC5=O)C6=O)CC4)ccc32)c1` (centres unmarked) [compound 56, N-(5-((4-(2-((2-(2,6-dioxopiperidin-3-yl)-1,3-dioxoisoindolin-5-yl)oxy)ethyl)piperazin-1-yl)methyl)-1-(3-methoxyphenyl)-1H-benzo[d]imidazol-2-yl)-3-(trifluoromethyl)benzamide] returned an IC50 against IRAK4 [1] not below 1 µM. Further, on IRAK4 [2], the DC50 was not below 1 µM.
At IRAK4 [1], `N#Cc1ccc2ncnc(N[C@H]3CC[C@H](N4CCN(CCOCCOCCOc5ccc6c(c5)C(=O)N(C5CCC(=O)NC5=O)C6=O)CC4)CC3)c2c1` (some centres unmarked) [compound 31] gave an IC50 not below 1 µM. Further, the DC50 on IRAK4 [2] is not below 1 µM.
The molecule `N#Cc1ccc2ncnc(N[C@H]3CC[C@H](N4CCN(S(=O)(=O)CCOCCOc5ccc6c(c5)C(=O)N(C5CCC(=O)NC5=O)C6=O)CC4)CC3)c2c1` (some centres unmarked) [compound 34] gave an IC50 against IRAK4 [1] not below 1 µM. Moreover, the DC50 at IRAK4 [2] is not below 1 µM.
For `Cc1ncsc1-c1ccc(CNC(=O)[C@@H]2C[C@@H](O)CN2C(=O)[C@@H](NC(=O)COCCOCCOCCN2CCN(Cc3ccc4c(c3)nc(NC(=O)c3cccc(C(F)(F)F)c3)n4C3CCC(CO)CC3)CC2)C(C)(C)C)cc1` (mixture of isomers) [compound 13, (2S,4R)-1-((S)-2-(tert-butyl)-14-(4-((1-((1SR,4SR)-4-(hydroxymethyl)cyclohexyl)-2-(3-(trifluoromethyl)benzamido)-1H-benzo[d]imidazol-5-yl)methyl)piperazin-1-yl)-4-oxo-6,9,12-trioxa-3-azatetradecanoyl)-4-hydroxy-N-(4-(4-methylthiazol-5-yl)benzyl)pyrrolidine-2-carboxamide], the IC50 against IRAK4 [1] lay within 0.3 to 1 µM. For the same molecule, the DC50 at IRAK4 [2] was not below 1 µM.
`N#Cc1ccc2ncnc(N[C@H]3CC[C@H](N4CCN(CCOCCOc5ccc6c(c5)C(=O)N(C5CCC(=O)NC5=O)C6=O)CC4)CC3)c2c1` (some centres unmarked) [compound 30]: at IRAK4 [1], the IC50 lay in the range of 0.3 to 1 µM. Further, the 50% degradation concentration (DC50) on IRAK4 [2] was not below 1 µM.
Molecule “N-(1-(3-((2-(2,6- dioxopiperidin-3-yl)-1,3- dioxoisoindolin-5- yl)oxy)ethyl)(methyl)amino) phenyl)-5-(piperadin-1- yl)methyl)-1H- benzo[d]imidazol-2-yl)-3- (trifluoromethyl)benzamide [compound 68]” showed an IC50 at IRAK4 [1] not below 1 µM. Besides, on IRAK4 [2], the “IRAK4 Dmax (%)” value is listed as “C (50 ≥ C > 30)” and the DC50 fell in the range of 0.3 to 1 µM.
As to `O=C1CCC(N2C(=O)c3ccc(OCCOCCOC[C@H]4CC[C@@H](n5c(NC(=O)c6cccc(C(F)(F)F)c6)nc6cc(CN7CCCCC7)ccc65)CC4)cc3C2=O)C(=O)N1` (some centres unmarked) [compound 44, N-(1-((1s,4s)-4-((2-(2-((2-(2,6-dioxopiperidin-3-yl)-1,3-dioxoisoindolin-5-yl)oxy)ethoxy)ethoxy)methyl)cyclohexyl)-5-(piperidin-1-ylmethyl)-1H-benzo[d]imidazol-2-yl)-3-(trifluoromethyl)benzamide], the IC50 against IRAK4 [1] is not below 1 µM. Also, at IRAK4 [2], the 50% degradation concentration (DC50) is not below 1 µM.
